Measured values reported in article PMC12509006, “Synthesis and Evaluation of Pyridine-Based Antibacterial Agents that Inhibit ATP Synthase in Acinetobacter baumannii” (ACS Omega, 2025).
In brackets after ≈: the same amount, converted by molar mass. Read-outs that look alike come from different tables or passages of the source.

Assays:
[1] = biological target: T1, A. baumannii ATP synthase (Acinetobacter baumannii, UniProt A3M139); assay: AB ATP synthase inhibition: NADH-driven ATP synthesis in inverted inner membrane vesicles, luciferin/luciferase readout; type: biochemical; details: for Hill coefficient (Hill slope): fit of ATP synthesis dose response curve
T1 construct: endogenous electron transport chains of inverted inner membrane vesicles were energized with NADH; endogenous in cells; host or cells: inverted inner membrane vesicles prepared from A. baumannii ATCC 17978 cells
T1 sequence (A3M139 whole entry): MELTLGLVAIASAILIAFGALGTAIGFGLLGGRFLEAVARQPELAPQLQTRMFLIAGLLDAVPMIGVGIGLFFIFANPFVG
Experimental: Once synthesized, the pyridine compounds were tested for their ability to inhibit ATP synthase activity using our previously reported luciferin/luciferase assay. Briefly, endogenous electron transport chains of inverted inner membrane vesicles were energized with NADH to generate a proton gradient and to drive ATP synthesis. ATP was measured via luminescence from the luciferase-catalyzed oxidation of D-luciferin. Luminescence activities across increasing inhibitor concentrations were corrected for gradient independent background sources of ATP by comparison with a control containing the protonophore CCCP (carbonyl cyanide 3-chlorophenylhydrazone). The data were then fit to a four-parameter logistic dose–response curve, from which IC50 values and Hill coefficients were determined using a nonlinear least-squares regression.
A. baumannii (ATCC 17978) cells were grown in LB medium at 37 °C with shaking at 150 rpm and harvested by centrifugation in the late exponential phase of growth. Cells were resuspended in TMG buffer (50 mM Tris-HCl, pH 7.5, 5 mM MgCl2, 10% v/v glycerol) with 1 mM phenylmethanesulfonyl fluoride, 1 mM dithiothreitol, and a small amount of DNase and lysed by two passes through an Avestin B15 homogenizer at 19,000 psi. Lysate was cleared by centrifugation at 9000g and inverted membrane vesicles were collected from the supernatant by centrifugation at 169,000g. To reduce background ATP synthesis activity in AB vesicles, it was important to wash the membranes by resuspending in TMG buffer and centrifuging again at 169,000g. Washed pellets were resuspended in TMG buffer, and aliquots were stored at −80 °C. Once thawed, aliquots were not refrozen. Protein concentration in membrane vesicles was determined using a modified Lowry assay.
In vitro ATP synthesis activity of inverted inner membrane vesicles was measured as previously described. A reaction solution was prepared containing 5 mM tricine-KOH, pH 8.0, 50 mM KCl, 2.5 mM MgCl2, 0.1 mM adenosine diphosphate, 3.75 mM potassium phosphate, and 2.5 mM NADH and distributed into a 96-well plate. NADH-driven ATP synthesis was initiated by addition of inverted vesicles to 50 μg/mL and allowed to proceed for 10 min. The reaction was stopped by transferring an aliquot into 1% trichloroacetic acid. The stopped reaction was diluted 100-fold with deionized water and a sample was transferred to luciferase solution containing 25 mM tricine-NaOH, pH 7.8, 5 mM MgSO4, 0.1 mM EDTA, 0.1 mM NaN3, 150 μg/mL luciferin, and 7.5 μg/mL luciferase. Luminescence was measured in an opaque white 96-well plate using a BioTek H1 multimode plate reader. Each replicate set included a positive control containing DMSO with no compound and a negative control containing carbonyl cyanide 3-chlorophenylhydrazone (CCCP). Luminescence values were corrected for background by subtracting the CCCP control and normalized to the luminescence of the DMSO control. Normalized activity was fit using a variable-slope dose response curve. Nonlinear regression, including prediction of 95% confidence bands, and pairwise comparisons of fits using the F-test method were completed using GraphPad Prism10. Relativeactivity=1/1+(c/IC50)^Hillslope […]
Figure S1. ATP synthesis inhibition by all pyridine compounds in order of WSA compound number. ATP synthesis activities in inverted inner membrane vesicles prepared from AB cells were measured in the presence of 0.0625-64 µg/mL, corrected for background ATP, and normalized to activity with DMSO alone (see methods). For each plot, dots are normalized activities at each concentration (n≥3) on a log 2 scale, solid lines are fitted dose response curves, and dashed lines show the 95% confidence range of the fit. IC50

HEK 293 cells = assay: XTT cell viability cytotoxicity assay; details: n = 3, 24 h treatment
MDR AB BAA 1605 = assay: Broth microdilution antimicrobial susceptibility assay, MDR isolate; details: Acinetobacter baumannii, BAA1605, read-out: MIC, MDR AB BAA 1605
AB ATCC 17978 [2] = assay: Broth microdilution antimicrobial susceptibility assay, susceptible isolate; details: Acinetobacter baumannii, ATCC17978, read-out: MIC, AB ATCC 17978
AB BAA 1605 = assay: Checkerboard assay with colistin sulfate, BAA 1605; details: without partner drug
Experimental: (§1) Synthesized compounds in DMSO (2–128 μg/mL, row G-A) were combined with colistin sulfate in ultra purified water (0.125–32 μg/mL, column 2–10) in a 96-well microtiter plate checkerboard assay against ATCC 17978 and BAA-1605 (MDR). Briefly, liquid cultures of bacteria were grown for 14–16 h by inoculating a single bacterial culture into 10 mL TSB. To each well 88 μL of TSB, 10 μL of bacteria culture, and 1 from each master plate was added (see layout below). Plates were covered and incubated at 37 °C for 12–18 h.

AB ATCC 17978 [3] = assay: Checkerboard assay with colistin sulfate, ATCC 17978; details: without partner drug
Experimental: as §1

[4] = Figure 2, read-out: IC50, AB ATP synthase inhibition (converted)
[5] = inverted inner membrane vesicles, 0.0625-64 µg/mL, n≥3, Table S1, read-out: AB ATP Synthase Inhibition IC50 (converted)

Molecule | IC50 [1, 4] [nM] | Hill coefficient (Hill slope) [1] | MIC, HEK 293 (cytotoxicity) (HEK 293 cells) [µg/mL] | MIC (MDR AB BAA 1605) [µg/mL] | MIC (AB ATCC 17978 [2]) [µg/mL] | IC50 [1, 5] [nM] | MIC alone, AB BAA 1605 (AB BAA 1605) [µg/mL] | MIC alone, AB ATCC 17978 (AB ATCC 17978 [3]) [µg/mL] | Hill coefficient (Hill slope) ([1]; listed as WSA305)
c1ccc(CSc2ncc(-c3ccccc3)cc2CNCc2ccc(CN3CCCC3)cc2)cc1 [WSA 294] | 1230 | -0.7 | 8 (≈ 16.7 µM) | 32 (≈ 66.7 µM) | 32 (≈ 66.7 µM) |  |  |  | 
Cc1ccc(-c2cnc(SCc3ccccc3)c(CNCc3ccc(CN4CCCC4)cc3)c2)cc1 [WSA 295] |  | -0.7 | 16 (≈ 32.4 µM) | 128 (≈ 259 µM) | 32 (≈ 64.8 µM) | 1090 |  |  | 
COc1nc2ccc(Br)cc2cc1[C@@H](c1ccccc1)[C@@](O)(CCN(C)C)c1cccc2ccccc12 [Bedaquiline, bedaquiline, reference compound] |  |  | > 32 |  |  |  |  |  | 
Fc1ccc(-c2cnc(SCc3ccccc3)c(CNCc3ccc(CN4CCCC4)cc3)c2)c(F)c1 [WSA 299] |  | -1.1 | 16 (≈ 31 µM) | 128 (≈ 248 µM) | 32 (≈ 62.1 µM) | 2130 |  |  | 
Brc1cnc(SCc2ccccc2)c(CNCc2ccc(CN3CCCC3)cc2)c1 [WSA 293] |  | -1.2 | 64 (≈ 133 µM) | 64 (≈ 133 µM) | 32 (≈ 66.3 µM) | 3730 |  |  | 
colistin [reference compound] |  |  |  |  |  |  | 1 | 2 | 
CCN1CCC(CCNCc2cc(-c3ccc(OC)cc3)cnc2SCc2ccccc2)CC1 [WSA 305] |  | -0.6 | 4 (≈ 8.41 µM) | 32 (≈ 67.3 µM) | 32 (≈ 67.3 µM) | 568 |  |  | -0.7
c1ccc(CSc2ncc(-c3ccccc3)cc2CNCCC2CCN(C3CCCC3)CC2)cc1 [WSA 302] | 988 | -0.8 | 16 (≈ 32.9 µM) | 64 (≈ 132 µM) | 64 (≈ 132 µM) |  |  |  | 
CNC(C)C1CCC(N)C(OC2C(N)CC(N)C(OC3OCC(C)(O)C(NC)C3O)C2O)O1 (stereo not drawn) [Gentamicin, reference compound] |  |  |  | > 16 | 8 (≈ 16.8 µM) |  |  |  | 
CCN1CCC(CCNCc2cc(Br)cnc2SCc2ccccc2)CC1 [WSA 272] |  | -0.6 | 32 (≈ 71.4 µM) | 128 (≈ 285 µM) | 128 (≈ 285 µM) | 4460 |  |  | 
c1ccc(CSc2ncccc2CNCc2ccc(CN3CCCC3)cc2)cc1 [WSA 267] |  | -0.7 |  | 128 (≈ 317 µM) | 128 (≈ 317 µM) | 91700 |  |  | 
COc1ccc(-c2cnc(SCc3ccccc3)c(CNCc3ccc(CN4CCCC4)cc3)c2)cc1F [WSA 297] | 796 | -0.8 | 8 (≈ 15.2 µM) | 128 (≈ 243 µM) | 32 (≈ 60.6 µM) |  |  |  | 
Fc1ccc(-c2cnc(SCc3ccccc3)c(CNCCC3CCN(C4CCCC4)CC3)c2)cc1 [WSA 291] |  | -1.1 | <2 | 32 (≈ 63.5 µM) | 32 (≈ 63.5 µM) | 1190 |  |  | 
CN1CCN(CCNCc2cccnc2SCc2ccccc2)CC1 [WSA 268] |  | -0.5 |  | > 128 | > 128 | > 180000 |  |  | 
COc1ccc(-c2cnc(SCc3ccccc3)c(CNCc3ccc(CN4CCCC4)cc3)c2)cc1 [WSA 296] | 863 | -0.6 | 16 (≈ 31.4 µM) | 128 (≈ 251 µM) | 32 (≈ 62.8 µM) |  |  |  | 
CCN1CCC(CCNCc2cc(-c3ccccc3)cnc2SCc2ccccc2)CC1 [WSA 304] |  | -0.7 | 8 (≈ 18 µM) | 64 (≈ 144 µM) | 32 (≈ 71.8 µM) | 1370 |  |  | 
CN1CCN(CCNCc2cc(-c3ccccc3)cnc2SCc2ccccc2)CC1 [WSA 277] |  | -0.7 | 16 (≈ 37 µM) | 128 (≈ 296 µM) | 32 (≈ 74 µM) | 2170 |  |  | 
CCN1CCC(CCNCc2cccnc2SCc2ccccc2)CC1 [WSA 264] |  | -0.8 |  | > 128 | > 128 | 83900 |  |  | 
COc1ccc(-c2cnc(SCc3ccccc3)c(CNCCC3CCN(C4CCCC4)CC3)c2)cc1F [WSA 290] |  | -0.7 | 4 (≈ 7.49 µM) | 32 (≈ 60 µM) | 32 (≈ 60 µM) | 356 |  |  | 
Fc1ccc(-c2cnc(SCc3ccccc3)c(CNCCC3CCN(C4CCCC4)CC3)c2)c(F)c1 [WSA 292] |  | -1.1 | 4 (≈ 7.67 µM) | 32 (≈ 61.3 µM) | 16 (≈ 30.7 µM) | 997 |  |  | 
CCN1CCC(CCNCc2cc(-c3ccc(F)cc3)cnc2SCc2ccccc2)CC1 [WSA 307] |  | -0.8 | 8 (≈ 17.3 µM) | 32 (≈ 69 µM) | 32 (≈ 69 µM) | 1160 |  |  | 
c1ccc(CSc2ncccc2CNCCC2CCN(C3CCCC3)CC2)cc1 [WSA 265] |  | -0.7 |  | > 128 | > 128 | 132000 |  |  | 
CCN1CCC(CCNCc2cc(-c3ccc(OC)c(F)c3)cnc2SCc2ccccc2)CC1 [WSA 306] |  | -0.9 | 16 (≈ 32.4 µM) | 32 (≈ 64.8 µM) | 32 (≈ 64.8 µM) | 1070 |  |  | 
CN1CCN(CCNCc2cc(Br)cnc2SCc2ccccc2)CC1 [WSA 271] |  | -0.7 | 64 (≈ 147 µM) | > 128 | > 128 | 2300 |  |  | 
CN(C)c1ccc(-c2cnc(SCc3ccccc3)c(CNCCC3CCN(C4CCCC4)CC3)c2)cc1 [WSA 303] |  | -1.2 | 4 (≈ 7.56 µM) | 128 (≈ 242 µM) | 64 (≈ 121 µM) | 1190 |  |  | 
COc1ccc(-c2cnc(SCc3ccccc3)c(CNCCN3CCN(C)CC3)c2)cc1 [WSA 278] | 2070 | -0.8 | 16 (≈ 34.6 µM) | 128 (≈ 277 µM) | 64 (≈ 138 µM) |  |  |  | 
CCN1CCC(CCNCc2cc(-c3ccc(F)cc3F)cnc2SCc2ccccc2)CC1 [WSA 308] |  | -0.9 | 16 (≈ 33.2 µM) | 64 (≈ 133 µM) | 32 (≈ 66.4 µM) | 1810 |  |  | 
Brc1cnc(SCc2ccccc2)c(CNCCC2CCN(C3CCCC3)CC2)c1 [WSA 301] |  | -0.5 | 16 (≈ 32.8 µM) | > 128 | 128 (≈ 262 µM) | 2660 |  |  | 
CCN1CCC(CCNCc2cc(-c3ccc(C)cc3)cnc2SCc2ccccc2)CC1 [WSA 300] |  | -0.7 | 4 (≈ 8.7 µM) | 32 (≈ 69.6 µM) | 16 (≈ 34.8 µM) | 674 |  |  | 
